Test results as given in patent US20160089319A1, “ACTIVES FOR STIMULATING DIFFERENTIATION OF KERATINOCYTES TO LIGHTEN HYPERPIGMENTED SKIN” (ELC MANAGEMENT LLC, priority 2014, published 2016).

Test system: basement membrane in hyperpigmented lesions
Assay: Further studies by the inventors on morphology of the basement membrane in hyperpigmented lesions (results not shown)
Assay type: in vivo
Settings: formulation containing the substance but no Phytofix

Substance: sodium ribonucleic acid
- improvement of the morphology of the basement membrane: no improvement of the morphology of the basement membrane
